The source of these data is patent publication US11702429B2, “mTORC modulators and uses thereof” (Aeovian Pharmaceuticals, Inc., priority 2019, dated 2023).

In one test the target is T1, mTORC2 (Homo sapiens, UniProt P42345+P62942).
T1 construct: endogenous in cells; host or cells: PC3 cells (human prostate adenocarcinoma)
As to the kind of experiment: Inhibition assay for mTORC2: phosphorylation of pAkt at Ser473, AlphaLISA in PC3 cells. Type of test: cell-based. The note with it: for IC50: read-out: pIC50 mTORC2 (converted). How it is done: (§1) The IC50s of the inhibition of mTORC1 and mTORC2 were determined in vitro by determining the phosphorylation of pS6K at position Thr389 (mTORC1 inhibition) and pAkt at Ser473 (mTORC2 inhibition). In vitro studies were performed with AlphaLISA® technology using PC3 cells (Prostate Adenocarcinoma; Human (Homo sapiens)). The cells were seeded in 96 well plates and were treated for 24 hours with the different compounds. […] All analysis were performed using GraphPad Prism 7.0 (GraphPad Software, San Diego, USA).

For the next test, the target named is T2, mTORC1 (Homo sapiens, UniProt P42345+P62942).
T2 construct: endogenous in cells; host or cells: PC3 cells (human prostate adenocarcinoma)
Nature of the test: Inhibition assay for mTORC1: phosphorylation of pS6K at Thr389, AlphaLISA in PC3 cells. The note with it: for IC50: read-out: pIC50 mTORC1 (converted). It counts as cell-based. How it is done: as §1

Setting [1] is: PC3 cells, treated 24 hours, pAkt Ser473, AlphaLISA, C16 diastereomer mixtures not separated.
Setting [2] is: PC3 cells, treated 24 hours, pS6K Thr389, AlphaLISA, C16 diastereomer mixtures not separated.

Like-named read-outs stand apart in the source and are kept apart here.

T1 sequence (P62942 2-108 limits assumed, other chains not shown): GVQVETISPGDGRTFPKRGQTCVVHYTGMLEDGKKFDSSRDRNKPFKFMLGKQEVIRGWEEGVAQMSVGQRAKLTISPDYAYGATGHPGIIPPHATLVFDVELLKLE

Regarding `COC1C[C@@H]2CC[C@@H](C)[C@@](O)(O2)C(=O)C(=O)N2CCCCC2C(=O)O[C@H]([C@H](C)C[C@@H]2CC[C@@H](OC(=O)NCCc3ccccc3)[C@H](OC)C2)CC(=O)[C@H](C)/C=C(\C)[C@@H](O)[C@@H](OC)C(=O)[C@H](C)C[C@H](C)/C=C/C=C/C=C/1C` (stereo partly shown) [Compound 324], the IC50 is below 1000 nM at mTORC2 and below 0.316 nM at mTORC1.

As to `CO[C@@H]1C[C@H](C[C@@H](C)[C@@H]2CC(=O)[C@H](C)/C=C(\C)[C@@H](O)[C@@H](OC)C(=O)[C@H](C)C[C@H](C)/C=C/C=C/C=C(\C)C(OC[C@H](O)c3ccccc3)C[C@@H]3CC[C@@H](C)[C@@](O)(O3)C(=O)C(=O)N3CCCCC3C(=O)O2)CC[C@H]1OCCO` (stereo partly shown) [Compound 88], the “pIC50 mTORC2” value at mTORC2 (setting [1]) was “B (5 to 6 as B)”. At mTORC1 (setting [2]), the “pIC50 mTORC1” value was “A (pIC50 for mTORC1 of >9.5 as A)”.

With `COCCCO[C@@H]1CC[C@@H](C[C@@H](C)[C@@H]2CC(=O)[C@H](C)/C=C(\C)[C@@H](O)[C@@H](OC)C(=O)[C@H](C)C[C@H](C)/C=C/C=C/C=C(\C)C(OC)C[C@@H]3CC[C@@H](C)[C@@](O)(O3)C(=O)C(=O)N3CCCCC3C(=O)O2)C[C@H]1OC` (stereo partly drawn) [Compound 308, (1R,9S,12S,15R,16E,18R,19R,21R,23S,24E,26E,28E,30S,32S,35R)-1,18-dihydroxy-19,30-dimethoxy-12-[(1R)-2-[(1S,3R,4R)-3-methoxy-4-(3-methoxypropoxy)cyclohexyl]-1-methyl-ethyl]-15,17,21,23,29,35-hexamethyl-11,36-dioxa-4-azatricyclo[30.3.1.0^4,9]hexatriaconta-16,24,26,28-tetraene-2,3,10,14,20-pentone], the IC50 at mTORC2 is below 1000 nM; on mTORC1, below 0.316 nM.

As for `COC1C[C@@H]2CC[C@@H](C)[C@@](O)(O2)C(=O)C(=O)N2CCCCC2C(=O)O[C@H]([C@H](C)C[C@@H]2CC[C@@H](OCCCN(C)C)[C@H](OC)C2)CC(=O)[C@H](C)/C=C(\C)[C@@H](O)[C@@H](OC)C(=O)[C@H](C)C[C@H](C)/C=C/C=C/C=C/1C` (stereo partly drawn) [Compound 363, (1R,9S,12S,15R,16E,18R,19R, 21R,23S,24E,26E,28E,30S,32S,35R)-12-[(1R)-2-[(1S,3R,4R)-4-[3-(dimethylamino)propoxy]-3-methoxy-cyclohexyl]-1-methyl-ethyl]-1,18-dihydroxy-19,30-dimethoxy-15,17,21,23,29,35-hexamethyl-11,36-dioxa-4-azatricyclo[30.3.1.0^4,9]hexatriaconta-16,24,26,28-tetraene-2,3,10,14,20-pentone], the results for the IC50 at mTORC2 and on mTORC1 were below 1000 nM and below 0.316 nM, respectively.

Turning to `COCCOC1C[C@@H]2CC[C@@H](C)[C@@](O)(O2)C(=O)C(=O)N2CCCC[C@H]2C(=O)O[C@H]([C@H](C)C[C@@H]2CC[C@@H](OCCN3CC4(COC4)C3)[C@H](OC)C2)CC(=O)[C@H](C)/C=C(\C)[C@@H](O)[C@@H](OC)C(=O)[C@H](C)C[C@H](C)/C=C/C=C/C=C/1C` (mixture of isomers) [Compound 44], the values for the IC50 on mTORC2 (setting [1]) and on mTORC1 (setting [2]) were 1000 to 10000 nM and below 0.316 nM, respectively.

Turning to `COCCOCCNC(=O)O[C@@H]1CC[C@@H](C[C@@H](C)[C@@H]2CC(=O)[C@H](C)/C=C(\C)[C@@H](O)[C@@H](OC)C(=O)[C@H](C)C[C@H](C)/C=C/C=C/C=C(\C)C(OC)C[C@@H]3CC[C@@H](C)[C@@](O)(O3)C(=O)C(=O)N3CCCCC3C(=O)O2)C[C@H]1OC` (stereo partly shown) [Compound 346], the IC50 on mTORC2 is below 1000 nM; on mTORC1, below 0.316 nM.

For the molecule `CO[C@@H]1C[C@H](C[C@@H](C)[C@@H]2CC(=O)[C@H](C)/C=C(\C)[C@@H](O)[C@@H](OC)C(=O)[C@H](C)C[C@H](C)/C=C/C=C/C=C(\C)C(OCCCO)C[C@@H]3CC[C@@H](C)[C@@](O)(O3)C(=O)C(=O)N3CCCC[C@H]3C(=O)O2)CC[C@H]1OCCCc1ccccc1` (mixture of isomers) [Compound 67, (1R,9S,12SR,15R,16E,18R,19R,21R,23S,24E,26E,28E,32SR,35R)-1,18-dihydroxy-30-(3-hydroxypropoxy)-19-methoxy-12-[(1R)-2-[(1S,3R,4R)-3-methoxy-4-(3-phenylpropoxy)cyclohexyl]-1-methyl-ethyl]-15,17,21,23,29,35-hexamethyl-11,36-dioxa-4-azatricyclo[30.3.1.0^4,9]hexatriaconta-16,24,26,28-tetraene-2,3,10,14,20-pentone], the values for the IC50 on mTORC2 (setting [1]) and on mTORC1 (setting [2]) were above 10000 nM and 0.316 to 3.16 nM, respectively.

For `CO[C@@H]1C[C@H](C[C@@H](C)[C@@H]2CC(=O)[C@H](C)/C=C(\C)[C@@H](O)[C@@H](OC)C(=O)[C@H](C)C[C@H](C)/C=C/C=C/C=C(\C)C(OCCOCCO)C[C@@H]3CC[C@@H](C)[C@@](O)(O3)C(=O)C(=O)N3CCCCC3C(=O)O2)CC[C@H]1O` (stereo partly shown) [Compound 224], the figures for the IC50 on mTORC2 and on mTORC1 were above 10000 nM and 0.316 to 3.16 nM, respectively.

With `CO[C@@H]1C[C@H](C[C@@H](C)[C@@H]2CC(=O)[C@H](C)/C=C(\C)[C@@H](O)[C@@H](OC)C(=O)[C@H](C)C[C@H](C)/C=C/C=C/C=C(\C)C(OC(C)C)C[C@@H]3CC[C@@H](C)[C@@](O)(O3)C(=O)C(=O)N3CCCCC3C(=O)O2)CC[C@H]1O` (stereo partly drawn) [Compound 208, (1R,9S,12S,15R,16E,18R,19R,21R,23S,24E,26E,28E,32S,35R)-1,18-dihydroxy-12-[(1R)-2-[(1S,3R,4R)-4-hydroxy-3-methoxy-cyclohexyl]-1-methyl-ethyl]-30-isopropoxy-19-methoxy-15,17,21,23,29,35-hexamethyl-11,36-dioxa-4-azatricyclo[30.3.1.0^4,9]hexatriaconta-16,24,26,28-tetraene-2,3,10,14,20-pentone], the IC50 at mTORC2 is 1000 to 10000 nM; on mTORC1 it was 0.316 to 3.16 nM.

`COCCOC1CC2CCC(C)C(O)(O2)C(=O)C(=O)N2CCCCC2C(=O)OC(C(C)CC2CCC(OCCCN3CCOCC3C)C(OC)C2)CC(=O)C(C)C=C(C)C(O)C(OC)C(=O)C(C)CC(C)C=CC=CC=C1C` (mixture of isomers) [Compound 42]: the IC50 on mTORC2 (setting [1]) was 1000 to 10000 nM; on mTORC1 (setting [2]), below 0.316 nM.

As for `CO[C@@H]1C[C@H](C[C@@H](C)[C@@H]2CC(=O)[C@H](C)/C=C(\C)[C@@H](O)[C@@H](OC)C(=O)[C@H](C)C[C@H](C)/C=C/C=C/C=C(\C)C(c3ccc(C)s3)C[C@@H]3CC[C@@H](C)[C@@](O)(O3)C(=O)C(=O)N3CCCCC3C(=O)O2)CC[C@H]1O` (stereo partly shown) [Compound 202], the IC50 at mTORC2 is 1000 to 10000 nM; on mTORC1, above 3.16 nM.

For `CO[C@@H]1C[C@H](C[C@@H](C)[C@@H]2CC(=O)[C@H](C)/C=C(\C)[C@@H](O)[C@@H](OC)C(=O)[C@H](C)C[C@H](C)/C=C/C=C/C=C(\C)C(OCCO)C[C@@H]3CC[C@@H](C)[C@@](O)(O3)C(=O)C(=O)N3CCCC[C@H]3C(=O)O2)CC[C@H]1OC(=O)NCCc1ccccc1` (mixture of isomers) [Compound 1, [(1R,2R,4S)-4-[(2R)-2-[(1R,9S,12SR,15R,16E,18R,19R,21R,23S,24E,26E,28E,32SR,35R)-1,18-dihydroxy-30-(2-hydroxyethoxy)-19-methoxy-15,17,21,23,29,35-hexamethyl-2,3,10,14,20-pentaoxo-11,36-dioxa-4-azatricyclo[30.3.1.0^4,9]hexatriaconta-16,24,26,28-tetraen-1^2-yl]propyl]-2-methoxy-cyclohexyl] N-(2-phenylethyl)carbamate], the IC50 at mTORC2 (setting [1]) is above 10000 nM; on mTORC1 (setting [2]) it was below 0.316 nM.

For the molecule `COC1C[C@@H]2CC[C@@H](C)[C@@](O)(O2)C(=O)C(=O)N2CCCCC2C(=O)O[C@H]([C@H](C)C[C@@H]2CC[C@@H](OC(=O)N(C)CCN(C)C)[C@H](OC)C2)CC(=O)[C@H](C)/C=C(\C)[C@@H](O)[C@@H](OC)C(=O)[C@H](C)C[C@H](C)/C=C/C=C/C=C/1C` (stereo partly shown) [Compound 359], the IC50 is below 1000 nM at mTORC2 and below 0.316 nM at mTORC1.

`COC1C[C@@H]2CC[C@@H](C)[C@@](O)(O2)C(=O)C(=O)N2CCCCC2C(=O)O[C@H]([C@H](C)C[C@@H]2CC[C@@H](OC(=O)N(C)CCO)[C@H](OC)C2)CC(=O)[C@H](C)/C=C(\C)[C@@H](O)[C@@H](OC)C(=O)[C@H](C)C[C@H](C)/C=C/C=C/C=C/1C` (stereo partly shown) [Compound 313]: the IC50 at mTORC2 was below 1000 nM; on mTORC1, below 0.316 nM.

`COC1C[C@@H]2CC[C@@H](C)[C@@](O)(O2)C(=O)C(=O)N2CCCCC2C(=O)O[C@H]([C@H](C)C[C@@H]2CC[C@@H](OCCCCN3CCOCC3)[C@H](OC)C2)CC(=O)[C@H](C)/C=C(\C)[C@@H](O)[C@@H](OC)C(=O)[C@H](C)C[C@H](C)/C=C/C=C/C=C/1C` (stereo partly shown) [Compound 300]: the IC50 on mTORC2 was below 1000 nM; at mTORC1, below 0.316 nM.

Regarding `COC1C[C@@H]2CC[C@@H](C)[C@@](O)(O2)C(=O)C(=O)N2CCCCC2C(=O)O[C@H]([C@H](C)C[C@@H]2CC[C@@H](OCCN3CCN(C)CC3)[C@H](OC)C2)CC(=O)[C@H](C)/C=C(\C)[C@@H](O)[C@@H](OC)C(=O)[C@H](C)C[C@H](C)/C=C/C=C/C=C/1C` (stereo partly shown) [Compound 320], the IC50 is below 1000 nM at mTORC2 and below 0.316 nM at mTORC1.

Consider `CO[C@@H]1C[C@H](C[C@@H](C)[C@@H]2CC(=O)[C@H](C)/C=C(\C)[C@@H](O)[C@@H](OC)C(=O)[C@H](C)C[C@H](C)/C=C/C=C/C=C(\C)C(OC[C@@H](C)O)C[C@@H]3CC[C@@H](C)[C@@](O)(O3)C(=O)C(=O)N3CCCCC3C(=O)O2)CC[C@H]1O` (stereo partly shown) [Compound 223], for which the values for the IC50 at mTORC2 and on mTORC1 were above 10000 nM and 0.316 to 3.16 nM, respectively.
